From patent US20190328721A1, “METHOD OF ACTIVATING DENDRITIC CELLS” (KOREA INSTITUTE OF SCIENCE AND TECHNOLOGY, priority 2018, published 2019)

Columns and labels:
[1] = test system: bone marrow-derived macrophages (BMDMs); experiment: Phagocytosis of cancer cells by bone marrow-derived macrophages in vitro; type: cell-based, mice
Protocol: (§1) Specifically, the present inventors prepared bone marrow-derived macrophages (BMDMs) differentiated from excised bone marrow of mice using M-CSF and bone marrow-derived dendritic cells (BMDCs) differentiated from excised bone marrow using Flt3L. The degree of differentiation was confirmed by flow cytometry analysis using antibodies specifically binding to F4/80 (BMDM marker) and CD11c (BMDC marker), respectively (FIGS. 2A and 2B).
(§2) The prepared BMDMs and BMDCs were stained with 1 μM CellTracker Deep Red (Thermo Fisher Scientific, USA). 30 μM of Y27632 (Abcam, USA) or 30 μM of fasudil (Selleck Chemicals, USA) was added to each of 15×10^4 cells/ml of the stained macrophages and dendritic cells and incubated at 37° C. for 1 hour. As a negative control, macrophages or dendritic cells that were not incubated with Y27632 and fasudil were used.
(§3) Bone marrow-derived macrophages or dendritic cells prepared in RPMI medium and cancer cell lines stained with 1 μM CellTracker CMFDA (Thermo Fisher Scientific, USA) were co-cultured at about 37° C. for about 2 hours. CT26.CL25, a colon cancer cell line, and B16F10-OVA, a melanoma cell line, were used as the cancer cells.
(§4) Thereafter, the percentage of cancer cells was measured by flow cytometry, and the phagocytosis ratio of macrophages and dendritic cells against cancer cells was calculated. The results are shown in FIGS. 2C to 2F (left: cancer cell line CT26.CL25, right: cancer cell line B16F10-OVA).
(§5) In order to more accurately analyze the phagocytosis of macrophages and dendritic cells against cancer cells according to the treatment of the ROCK inhibitor, the present inventors analyzed phagocytosis of the BMDMs and BMDCs against CT26.CL25 colon cancer cells using the pHrodo-SE dye, which changes in fluorescence depending on pH. When […], the pH of the cancer cells decreased and became red. When treated with Y27632 as described above for the above-mentioned phagocytosis response, the phagocytic activities of both the BMDMs and BMDCs against cancer cells were improved.
(§6) The present inventors performed an experiment to confirm how long the phagocytosis of BMDMs and BMDCs against cancer cells due to the ROCK inhibitor is maintained. Specifically, BMDMs and BMDCs were pretreated with Y27632 for 1 hour, then Y27632 was removed, and immediately after 30 minutes, 1 hour, 2 hours, or 4 hours, the phagocytosis against CT26.CL25 and B16F10-Ova was measured using a flow cytometer. The other experimental conditions were the same as in Example 1-1.
(§7) In order to confirm whether the ROCK inhibitor increases phagocytosis against cancer cells by acting on phagocytic cells (BMDMs or BMDCs) themselves, Y27632 was used to pretreat the phagocytic cells or cancer cells for 1 hour, and the phagocytic activity was analyzed using the same procedure described in Example 1-1.
The present inventors identified through the above-mentioned results that Y27632 promotes phagocytic cells against cancer cells by inhibiting ROCK in the phagocytic cells. In order to elucidate a more detailed mechanism related to the increase of phagocytic activity by ROCK inhibitors, the present inventors analyzed phagocytosis of the phagocytic cells against cancer cells using blebbistatin (Sigma-Aldrich, USA), which can inhibit the movement of myosin light chain, which exist downstream of ROCK signaling pathway, according to the method described in Example 1-1.
Bone marrow-derived macrophages (BMDMs) treated with 30 μM of fasudil were co-cultured with B16F10-Ova malignant melanoma cells for 1 hour and the phagocytic activity of the BMDMs against apoptotic cancer cells was analyzed by flow cytometry analysis. In order to induce immunogenic apoptosis, 2.5 μM mitoxantrone (Sigma-Aldrich, USA) was administered with B16F10-Ova cells stained with CellTracker Deep Red (Thermo Fisher Scientific, USA) for 4 hours. […]

[2] = test system: bone marrow-derived dendritic cells (BMDCs); experiment: Phagocytosis of cancer cells by bone marrow-derived dendritic cells in vitro; type: cell-based, mice; conditions: 30 μM, 1 hour; B16F10; co-cultivated 30 min
B16F10 cancer cells = experiment: B16F10 tumor model, ripasudil, PDT and anti-PD-L1 antibodies; parameters: species or system C57BL/6 wild-type mice; conditions: mouse, in vivo
[3] = test system: bone marrow-derived dendritic cells (BMDCs); experiment: Phagocytosis of cancer cells by bone marrow-derived dendritic cells in vitro; type: cell-based, mice; conditions: method of Example 1-1; CT26.CL25 and B16F10-Ova
Protocol: as §1, §2, §3, §4, §5, §6
as §7, with “1-1. […]” for “1-1.”
Phagocytic activity of bone marrow-derived dendritic cells (BMDCs) differentiated from bone marrow cells against cancer cells was analyzed by treating the BMDCs with ROCK inhibitor Y27632 (30 μM) for 1 hour and then co-cultivating with CT26.CL25 colon cancer cells pretreated with 25 μM of doxorubicin for 24 hours or B16F10-Ova malignant melanoma cells treated with 30 μM of Y27632 for 1 hour and then treated with 2.5 μM doxorubicin (Sigma-Aldrich, USA) for 24 hours by pHrodo SE (Thermo Fisher Scientific, USA) staining (BMDC:Dox-treated B16F10-Ova=1:1). As shown in FIGS. 16A to 16D, it was confirmed that the phagocytic activity of BMDCs induced by doxorubicin were increased in the Y27632-treated group compared to the control group (FIGS. 16A to 16D). […]

MMTV/Neu mice tumors = experiment: Spontaneous cancer development model; type: in vivo; conditions: anti-CD8 fluorescence immunohistochemistry
Protocol: The survival rate was recorded over up to 100 days. When the size of tumor was over 2,500 mm^3, the animal was euthanized (FIG. 20C).
Specifically, fluorescence immunohistochemical analysis was performed using anti-CD8 antibodies in the cancer tissues after the end of the experiment.
Accordingly, the present inventors investigated whether the combination of the drugs can increase the anti-cancer immunity even in the spontaneous cancer development model. […] After completion of the experiment, the present inventors isolated the spleen cells and treated with peptide against rat-Neu, an antigen expressed in the cancer of the spontaneous cancer development model, and after 48 hours, the culture supernatant was collected and IFN-γ was quantified using an ELISA kit (R&D Systems, Inc, USA).

[4] = test system: bone marrow-derived dendritic cells (BMDC); experiment: Cross presentation of H-2Kb-Ova by BMDCs in vitro; type: cell-based, mice; conditions: Y27632 30 μM, 1 hour on BMDCs; cancer cells doxorubicin treated or untreated
Protocol: Furthermore, the inventors investigated whether the cross presentation of dendritic cells was promoted by the combination treatment of doxorubicin and Y27632. To this end, the present inventors used 30 μM of Y27632 to pretreat bone marrow-derived dendritic cells (BMDC) stained with CellTracker CMFDA (Thermo Fisher Scientific, USA) for 1 hour, followed by treatment with doxorubicin treated B16F10-Ova cells or doxorubicin untreated B16F10-Ova cells. After the co-culture, floating cancer cells were removed by withdrawing supernatant. Cross presentation activity, which is one of functions of dendritic cells, was analyzed via flow cytometry analysis using an antibody capable of detect a cancer antigen (H-2K^b-Ova) capable of activating T cells, through flow cytometry analysis using an antibody (H-2K^b monoclonal antibody, Invitrogen, USA).

dendritic cells = experiment: Flow cytometry of dendritic cells from B16F10-Ova-bearing mice (maturation, subsets, cross presentation); type: in vivo; conditions: tumor-draining lymph nodes
Protocol: To confirm the effect of the ROCK inhibitor Y27632 on the maturation process of dendritic cells, the inventors administered Y27362 to B16F10-Ova-bearing cancer model animals according to the same administration schedule as in Example 2-1, and the expression of CD40 and CD86, which are dendritic cell maturation markers, was analyzed by flow cytometry.
Recently, it has been shown that CD103 (corresponding to CD141 in humans)-positive dendritic cells (CD103 DC) play an important role in cancer cell phagocytosis and T cell anticancer immunity among dendritic cells (Broz et al., Cancer Cell, 26 (5): 638-652, 2014). Therefore, in order to analyze the effect of the ROCK inhibitor on CD103 DC, Y27632 was administered to B16F10-Ova-bearing cancer model mice according to the administration schedule described in the above Example 2-1, tumor tissues and tumor-draining lymph nodes were excised, and then flow cytometry analysis was performed using antibodies specifically binding to dendritic cell markers (CD11b, CD103 and CD8). It was confirmed that the ratio of CD103 DC was increased by Y27632 in both the tumor-draining lymph nodes (FIG. 15A) and the tumor tissues (FIG. 15B). On the other hand, in the case of CD11b-positive and CD8-positive dendritic cells, no change due to administration of Y27632 was observed.
The present inventors analyzed cross presentation activity which is one of functions of dendritic cells via flow cytometry analysis using an antibody capable of detecting a cancer antigen (H-2K^b-Ova) capable of activating T cells, through flow cytometry analysis using an antibody (H-2K^b monoclonal antibody, Invitrogen, USA). It was confirmed that the cross presentation of CD103 DC was increased by Y27632 in both tumor-draining lymph nodes (FIG. 15C) and tumor tissues (FIG. 15D).
Further, the present inventors analyzed CD40, which is one of the markers of dendritic cell function capable of activating T cells and a DC maturation marker of dendritic cells, by flow cytometry analysis using anti-CD40 antibodies. As shown in FIGS. 15E and 15F, it was confirmed that the maturation of CD103 DC was increased by Y27632 in the tumor-draining lymph nodes.
The present inventors analyzed a series of immunological induction processes occurring after the phagocytosis against cancer cells or cancer-specific antigens in order to analyze the mechanism of the combination therapy for the anti-cancer immune response. Specifically, in order to confirm the effect of the combination therapy on the dendritic cell maturation, Y27632 and doxorubicin were administered to B16F10-Ova-bearing cancer model mice as described above, and then tumor-draining lymph nodes were isolated and the expression of CD40 and CD86, which are dendritic cell maturation markers, was analyzed by flow cytometry analysis.
Further, in order to confirm the effect of the combined treatment on the cross presentation process to the dendritic cells, the present inventors administered Y27632 and doxorubicin to B16F10-Ova-bearing cancer model mice as described above, isolated the tumor-draining lymph nodes, and then cross presentation activity, which is one of functions of dendritic cells, was analyzed via flow cytometry analysis using an antibody capable of detect a cancer antigen (H-2K^b-Ova) capable of activating T cells, through flow cytometry analysis using an antibody (H-2K^b monoclonal antibody, Invitrogen, USA).
The present inventors then investigated the effect of the combination of the drugs on the maturation process of dendritic cells. Specifically, the tumor-draining lymph nodes were isolated after administration of Y27632 and/or cisplatin in the B16F10-Ova-bearing cancer model, and the expression level of CD40 and CD86, the dendritic cell maturation markers, was analyzed by flow cytometry. As shown in FIG. 19C and 19D, there was no influence on the maturation of dendritic cells when Y27632 alone, cisplatin alone, or the combination of the two were administered (FIGS. 19C and 19D). […]

B16F10-Ova = B16F10-Ova tumor model, Y27632 combined with a chemotherapeutic; type: in vivo, mice; conditions: doxorubicin 5 mg/kg, Y27632 10 mg/kg
Protocol: Specifically, tumor suppression was examined by administering 5 mg/kg of doxorubicin and 10 mg/kg of Y27632 alone or in combination to B16F10-Ova-bearing tumor model mice prepared as in Example 2-1. Doxorubicin was administered three times at intervals of 3 days from the 8th day after the injection of cancer cells, and Y27632 was administered at a dose of 10 mg/kg continuously for two consecutive days via intravenous injection followed by a day of rest as a cycle, followed by 3 cycles of 3-day intervals (FIG. 18A). The mice were sacrificed on the 20th day after the injection of cancer cells, the tumor tissue was excised, and ex vivo images were taken and the tumor tissues were weighed. Before the sacrifice of the mice, the tumor volumes over time were calculated as described above using calipers at intervals of 3 days from the 8th day after the injection of the cancer cells.
In order to confirm whether CD8^+ T cells infiltrates into tumor tissues, tumor tissues excised from an experimental animal were sectioned and subjected to fluorescence immunohistochemistry using anti-CD8 antibodies.
First, to determine the cisplatin therapeutic concentration, a B16F10-Ova tumor model was constructed in a nude mouse lacking T cell immunity and then an experiment was conducted to confirm the concentration of cisplatin having an anticancer effect similar to that of doxorubicin at 5 mg/kg. […] Thus, in order to evaluate the therapeutic effect of cisplatin and the ROCK inhibitor Y27632 in the B16F10-Ova-bearing tumor model, 3 mg/kg of cisplatin was administered according to the administration schedule shown in FIG. 18A.

CT26 cancer cells = experiment: CT26 tumor model; type: in vivo, mice; conditions: fasudil 20 mg/kg; Y27632 10 mg/kg
Protocol: The same procedure as described above was repeated except that CT26 was used instead of the CT26.CL25 colon cancer cell line and fasudil (Selleck Chemicals, USA) at 20 mg/kg of body weight or Y27632 at 10 mg/kg of body weight was administered.

[5] = doxorubicin 5 mg/kg, Y27632 10 mg/kg

C[C@H]1CNCCCN1S(=O)(=O)c1cccc2cncc(F)c12 [ripasudil]
phagocytic activity of BMDMs against PDT-treated cancer cells ([1]; 30 μM, 1 hour, B16F10, co-cultivated 30 min): significantly increased | phagocytic activity of BMDCs against PDT-treated cancer cells [2]: significantly increased | CD40 and CD86 on dendritic cells of tumor draining lymph nodes (B16F10 cancer cells): No increased expression

Cc1ccc2c(c1)C(=O)C1(O)CCN(c3ccccc3)C1=N2 (stereo not drawn) [blebbistatin]
phagocytic action of phagocytic cells against cancer cells (BMDMs) ([1]; method of Example 1-1, CT26.CL25 and B16F10-Ova): significantly enhance | phagocytic action of phagocytic cells against cancer cells (BMDCs) [3]: significantly enhance

COc1cccc2c1C(=O)c1c(O)c3c(c(O)c1C2=O)C[C@@](O)(C(=O)CO)C[C@@H]3O[C@H]1C[C@H](N)[C@H](O)[C@H](C)O1 [doxorubicin]
CD8+ T cells in tumor tissues (infiltration) (MMTV/Neu mice tumors): some T cell infiltration | cross presentation (H-2Kb-Ova) of BMDCs co-cultured with B16F10-Ova cells [4]: increased the cross-presentation | antigenic cross presentation (H-2Kb-Ova) in the dendritic cells (dendritic cells; [5]): did not significantly increase | dendritic cell maturation (expression of CD40 and CD86) (dendritic cells; [5]): no effect | complete regression of the tumor (B16F10-Ova): not observed | infiltration of CD8+ T cells into tumor tissues (B16F10-Ova): slight infiltration

N.N.[Cl][Pt][Cl] [cisplatin]
cross-presentation function (H-2Kb-Ova) of dendritic cells (dendritic cells; cisplatin study): no effect | maturation of dendritic cells (CD40 and CD86) (dendritic cells; cisplatin study): no influence

O=S(=O)(c1cccc2cnccc12)N1CCCNCC1 [fasudil]
phagocytosis of BMDMs against cancer cells in immunogenic cell death induced by mitoxantrone ([1]; 30 μM, 1 hour, B16F10-Ova treated with 2.5 μM mitoxantrone, compared with control): significant increase | growth of cancer (size of the tumor) (CT26 cancer cells): inhibited the growth of cancer similarly to Y27632
